Test results: publication PMC4242536, “Cell Surface Protein Disulfide Isomerase Regulates Natriuretic Peptide Generation of Cyclic Guanosine Monophosphate” (PLoS ONE, 2014)

What was measured:
[1] = target: T1, PDI full-length protein (Homo sapiens, UniProt P07237); test: Surface Plasmon Resonance binding to immobilized PDI (Biacore T200); conditions: SPR, 25°C, pH 7.4
T1 construct: PDI full-length protein (Sigma, St. Louis, MO) was immobilized onto a CM5 sensorchip; purchased Sigma (St. Louis, MO)
Method: SPR measurements were performed at 25°C on a Biacore T200 biosensor (GE Healthcare). PDI full-length protein (Sigma, St. Louis, MO) was immobilized onto a CM5 sensorchip using an amine coupling immobilization kit (GE Healthcare) as instructed by the supplier. After the chip was washed with Biacore running buffer (150 mM NaCl, and 0.005% (w/v) Polysorbate 20, 10 mM HEPES, pH 7.4), peptides ANP, BNP or CNP were injected at 40 ul/min for 30 s and allowed to dissociate for 150 s. Residual bound peptide was desorbed with 350 mM NaCl. Binding kinetics were derived from sensorgrams using Bioevaluation software version 4.1.1 (GE Healthcare).

[2] = test system: GC-B; test: Western blot of GC-B expression in HMCs; format: cell-based, human; conditions: HMCs with and without bacitracin
Method: (§1) Human umbilical vein endothelial cells (HUVECs), human aortic smooth muscle cells (HASMCs), and pig kidney epithelial cells (LLC-PK1) were purchased from American Type Culture Collection (ATCC) (Manassas, VA). HUVECs were cultured in endothelial growth medium (EGM-2) with supplements (Lonza, Hopkinton, MA). HASMCs were cultured in smooth muscle cells growth medium (SmBM) with supplements (Lonza). Primary human glomerular mesangial cells (HMCs) (Cell Systems Inc., Kirkland, WA) were grown in mesangial growth media with supplements (Cell Systems Inc.). LLC-PK1 cells were grown in Dullbecco's Modification of Eagle's Medium (DMEM) containing 10% FBS. All cell cultures were grown at 37°C in humidified 5% CO2 air. Primary cells from passage 3 to 7 were used in this study. Conventional western blotting was used to identify PDI in cellular proteins and was described previously.

[3] = test system: pig kidney epithelial cells (LLC-PK1); test: Total cellular cGMP (BIOTRAK enzyme immunoassay) in LLC-PK1 cells stimulated by ANP; format: cell-based
Method: as §1, with “study.” for “study. Conventional western blotting was used to identify PDI in cellular proteins and was described previously.”
(§2) Total cellular cGMP was measured using the BIOTRAK cGMP enzyme immunoassay system Kit (GE Healthcare) as previously described. Briefly, cells were plated in 96-well plates and incubated overnight to reach 80% confluence. The cells were stimulated with different concentrations of synthetic natriuretic peptides dissolved in basic culture medium containing 0.5 mM IBMX for 30 minutes, then lysed. All samples were completed in triplicate for each experiment. The amount of cGMP was calculated from a standard curve that was generated in parallel. […]

[4] = test system: HMCs, HASMCs, and HUVECs; test: Total cellular cGMP in HMCs, HASMCs and HUVECs (summary over cells); format: cell-based, human
Method: (§3) Human umbilical vein endothelial cells (HUVECs), human aortic smooth muscle cells (HASMCs), and pig kidney epithelial cells (LLC-PK1) were purchased from American Type Culture Collection (ATCC) (Manassas, VA). HUVECs were cultured in endothelial growth medium (EGM-2) with supplements (Lonza, Hopkinton, MA). HASMCs were cultured in smooth muscle cells growth medium (SmBM) with supplements (Lonza). Primary human glomerular mesangial cells (HMCs) (Cell Systems Inc., Kirkland, WA) were grown in mesangial growth media with supplements (Cell Systems Inc.). LLC-PK1 cells were grown in Dullbecco's Modification of Eagle's Medium (DMEM) containing 10% FBS. All cell cultures were grown at 37°C in humidified 5% CO2 air. Primary cells from passage 3 to 7 were used in this study. Total cellular cGMP was measured using the BIOTRAK cGMP enzyme immunoassay system Kit (GE Healthcare) as previously described. Briefly, cells were plated in 96-well plates and incubated overnight to reach 80% confluence. The cells were stimulated with different concentrations of synthetic natriuretic peptides dissolved in basic culture medium containing 0.5 mM IBMX for 30 minutes, then lysed. All samples were completed in triplicate for each experiment. The amount of cGMP was calculated from a standard curve that was generated in parallel. […]

[5] = test system: human aortic smooth muscle cells (HASMCs); test: Total cellular cGMP (BIOTRAK enzyme immunoassay) in HASMCs stimulated by natriuretic peptides; format: cell-based; conditions: 30 minutes with NP, 0.5 mM IBMX, p ≤0.05 vs samples without bacitracin, 3 independent experiments in triplicate
Method: as §3

[6] = test system: human umbilical vein endothelial cells (HUVECs); test: Total cellular cGMP (BIOTRAK enzyme immunoassay) in HUVECs stimulated by natriuretic peptides; format: cell-based; conditions: 30 minutes with NP, 0.5 mM IBMX, p ≤0.05 vs samples without bacitracin, 3 independent experiments in triplicate
Method: as §3

[7] = test system: PDI; test: Diphtheria toxin sensitivity assay (cell survival) in HMCs; format: cell-based, human; conditions: DT 30 minutes then 72 hours, p<0.05, 3 independent experiments
[8] = test system: human mesangial cells (HMCs); test: Total cellular cGMP (BIOTRAK enzyme immunoassay) in HMCs stimulated by natriuretic peptides; format: cell-based
Method: as §1, with “study.” for “study. Conventional western blotting was used to identify PDI in cellular proteins and was described previously.”
as §2

T1 sequence (P07237 18-508, species assumed): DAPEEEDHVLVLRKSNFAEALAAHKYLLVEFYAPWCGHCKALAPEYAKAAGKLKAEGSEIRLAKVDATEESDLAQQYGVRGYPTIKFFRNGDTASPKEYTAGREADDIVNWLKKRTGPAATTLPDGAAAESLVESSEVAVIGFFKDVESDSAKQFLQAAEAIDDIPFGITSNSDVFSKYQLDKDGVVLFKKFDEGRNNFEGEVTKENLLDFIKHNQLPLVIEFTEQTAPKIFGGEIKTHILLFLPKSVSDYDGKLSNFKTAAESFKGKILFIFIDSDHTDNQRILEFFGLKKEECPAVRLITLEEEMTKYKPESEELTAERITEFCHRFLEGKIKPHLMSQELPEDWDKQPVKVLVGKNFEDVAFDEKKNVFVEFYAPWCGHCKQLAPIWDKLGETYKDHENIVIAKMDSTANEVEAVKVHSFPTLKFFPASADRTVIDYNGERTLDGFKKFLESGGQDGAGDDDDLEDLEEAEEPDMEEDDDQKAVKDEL

CC[C@H](C)[C@@H]1NC(=O)[C@H](CCCNC(=N)N)NC(=O)[C@H](CC(=O)O)NC(=O)[C@H](CCSC)NC(=O)[C@H](CCCCN)NC(=O)[C@H](CCCNC(=N)N)NC(=O)CNC(=O)[C@H](Cc2ccccc2)NC(=O)[C@@H](NC(=O)CNC(=O)[C@H](CO)NC(=O)CNC(=O)[C@H](CCC(N)=O)NC(=O)[C@@H](NC(=O)[C@H](CCSC)NC(=O)[C@H](CCCCN)NC(=O)[C@@H]2CCCN2C(=O)[C@@H](N)CO)C(C)C)CSSC[C@@H](C(=O)N[C@@H](CCCCN)C(=O)N[C@H](C(=O)N[C@@H](CC(C)C)C(=O)N[C@@H](CCCNC(=N)N)C(=O)N[C@@H](CCCNC(=N)N)C(=O)N[C@@H](Cc2c[nH]cn2)C(=O)O)C(C)C)NC(=O)CNC(=O)[C@H](CC(C)C)NC(=O)CNC(=O)[C@H](CO)NC(=O)[C@H](CO)NC(=O)[C@H](CO)NC(=O)[C@H](CO)NC1=O [BNP, B-type natriuretic peptide]
binding to immobilized PDI (in words) ([1]; 0–1600 nM ANP and BNP, 200 nM comparison of NPs): highest binding affinity with PDI and displayed dose-dependent increases in binding

C-type natriuretic peptide [CNP]
affinity for PDI (in words) ([1]; compared with ANP and BNP, Fig. 5D): much lower affinity

bacitracin
effect on GC-B expression [2]: no difference in GC-B expression | inhibition of ANP-mediated increases in cGMP ([3]; LLC-PK1 cells (no detectable PDI), p>0.05): did not inhibit | dose dependence of the inhibitory effect on NP-mediated cGMP ([4]; data not shown, HMCs, HASMCs and HUVECs): dose dependent | effect on NP cGMP generation compared to RL90 or siRNA knockdown ([4]; in words): greater effect | attenuation of ANP, BNP, and CNP-mediated increases in cGMP [5]: significantly attenuated | attenuation of ANP, BNP, and CNP-mediated increases in cGMP [6]: significantly attenuated | cell survival on diphtheria toxin (inhibition of PDI-dependent DT toxicity) [7]: inhibited PDI function | cell survival on diphtheria toxin (inhibition of PDI-dependent DT toxicity) ([7]; listed as Bacitracin): increased cell survival significantly | inhibitory effect on cGMP levels in the presence of protease inhibitors ([8]; HMCs stimulated by ANP and CNP, with or without protease inhibitor cocktail, 3 independent experiments): did not lose its inhibitory effects on cGMP levels | attenuation of ANP, BNP, and CNP-mediated increases in cGMP ([8]; HMCs, 30 minutes with NP, 0.5 mM IBMX, p ≤0.05 vs samples without bacitracin, 3 independent experiments in triplicate): significantly attenuated

protein disulfide isomerase [PDI]
increase of ANP stimulated cGMP production ([3]; LLC-PK1 cells, purified PDI added, compared with cells without PDI, second of two values (condition not given, Fig. 3C)): 39%
